For 71 compounds, EC50, IC50 and outcome results are on record in PubChem BioAssay AID179 (DTP/NCI, 2004).

Where “and” joins values, the source holds several entries; their conditions need not be identical. Equal values may be shown once. Calls of active or inactive are those of the source.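 The calls were made as follows: active = compounds giving half or more protection of infected cells from virus-caused growth loss, again on retest; inactive = the rest.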 Where a SMILES comes first, the peptide text is derived from it. The star is where a group is joined. Boc = CC(C)(C)OC(=O)* A value given as a limit tells only on which side of the number the result lay.

The subject of this experiment is CEM cells HIV-1 protection, formazan growth assay. Briefly: NCI AIDS Antiviral Assay. Conditions: for IC50: measured here: growth of uninfected CEM cells. The procedure, abridged: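 Human CEM cells, uninfected and HIV-1-infected, exposed to five drug concentrations; growth measured by soluble formazan assay and scored as percent protection from infection, with protecting compounds retested.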

What is called EC50 is the midpoint of the concentration-response curve. Usually IC50 stands for the concentration needed to halve the response being measured. Low readings indicate higher potency, high ones lower potency.

On to `CC(=O)N1CC(C)(C)c2c(C)c(O)c(C)c(C)c21`, for which the EC50 is above 200 µM and the IC50 came out at 178 µM.
For the compound `Cc1ccc(-c2oc(C=Nc3ccccc3)c([N+](=O)[O-])c2-c2ccc(C)cc2)cc1`, the EC50 was above 200 µM and the IC50 is above 200 µM.
For the compound `COc1ccc2nc3c([N+](=O)[O-])ccc4c3c(c2c1)NCCN4CCN(C)C`, the EC50 was above 200 µM and the half-maximal inhibitory concentration (IC50) is 1.05 µM.
For `O=C(O)[C@@H]1CSC(c2ccc(C(F)(F)F)cc2)N1` (some centres undefined), in that order: above 200 µM and above 200 µM.
Regarding `CC(NC(=O)C(=O)N/N=C1\CC(c2ccccc2)Sc2ccccc21)c1ccccc1` (centres undefined), the result was inactive.
In the case of `C=C1C(=O)C23C(O)C1CC[C@H]2C12CCCC(C)(C)[C@H]1[C@H](O)[C@]3(O)OC2` (some centres undefined), the EC50 was above 724 µM and the IC50 is 0.339 µM.
For `COC(=O)C(=O)C(/C=N/C(=S)NCCc1ccc(OC)c(OC)c1)=C(/O)c1ccc([N+](=O)[O-])cc1` the same measures were above 100 µM and above 100 µM.
As to `Cc1cc2c(c(N)c1C)C(=O)c1ccccc1C2=O`, the outcome was inactive.
As for `CC1CCC(=NNS(=O)(=O)c2ccc(N)cc2)CC1` (centres undefined), the EC50 is above 129 µM and the IC50 was above 129 µM.
`Cc1nc(Nc2ccccc2Cl)sc1C(=O)CC(=O)C(N)=O`: the EC50 is above 200 µM and the IC50 is above 200 µM.
In the case of `CC1(C)OCN(c2ccc(N3CCOCC3)cc2)Cn2c1nc1ccccc12`, the EC50 was above 200 µM and the IC50 is 64.6 µM.
`O=c1ncc2[nH]c(=S)[nH]c2[nH]1`: the EC50 was above 200 µM and the IC50 was above 200 µM.
Turning to `COc1cc(/C=C/c2ccnc3ccccc23)ccc1N(C)C`, the EC50 is above 200 µM and the IC50 is 2.19 µM.
For `COc1c(Cl)cc(C(=CCC(=O)O)c2cc(Cl)c(OC)c(C(=O)O)c2)cc1C(=O)O` the same measures were 30.2 µM and above 200 µM.
For `CC(=O)c1ccc(Br)cc1NC1=CC(=O)c2ncccc2C1=O` the same measures were above 200 µM and 4.68 µM.
As for `CCC1CN2CCc3c([nH]c4ccccc34)C2C[C@@H]1CC(=O)N(C)C` (some centres undefined), the EC50 is above 148 µM and the IC50 was above 148 µM.
For `C[C@@H]1CC[C@]2(C)C3(C)CC[C@]2(OC3=O)[C@@]12CC(c1ccoc1)OC2=O` (some centres undefined), the EC50 was above 200 µM and the IC50 is 33.9 µM.
Take `CSc1nc(-c2ccccc2)nc(=[N+]2CCOCC2)s1`: the EC50 is above 417 µM and the IC50 turned out to be 234 µM.
With `CCOC(=O)c1cc2cc([N+](=O)[O-])ccc2oc1=O`, the EC50 was above 105 µM and the IC50 was above 105 µM.
As for `CC1(C)N=C(/C=N/O)C(C)(C)N1O`, the EC50 is above 200 µM and the IC50 is above 200 µM.
In the case of `CN(C)N1C(=C(C#N)C#N)C(c2ccccc2)CC1C#N` (centres undefined), the EC50 is above 200 µM and the IC50 is above 200 µM.
For `O=C(Nc1ccc(C(F)(F)F)cc1)NC(F)(F)F`, the EC50 is above 200 µM and the IC50 is above 200 µM.
For the compound `CCCCOC(=O)C(=O)/C(=C/N1C(=O)/C(=C/C(C)=C/c2ccccc2)SC1=S)C(=O)C=C(C)C`, the EC50 is above 100 µM and the IC50 turned out to be 14.8 µM.
On to `CC1=NN(c2ccccc2)C(=O)C12[C@H](c1ccccc1)C2(C#N)C#N` (some centres undefined), for which the EC50 was above 21.9 µM and the IC50 was 3.39 µM.
For `COc1ccc(Oc2ccccc2N)cc1`, the outcome was inactive.
As to `C[C@H](CCC1=NCCN1)[C@H]1CC[C@H]2[C@@H]3CC[C@@H]4C[C@H](O)CC[C@]4(C)[C@H]3CC[C@]12C`, the EC50 is above 100 µM and the IC50 stood at 13.8 µM.
Regarding `COC(=O)c1cccc2cccc(C(=O)Nc3ccc(Cl)cc3)c12`, the EC50 was above 11.2 µM and the IC50 was above 11.2 µM.
On to `N#CC(C#N)=C/C=C/c1ccccc1[N+](=O)[O-]`, for which the EC50 was above 200 µM and the IC50 turned out to be 3.47 µM.
For `CCCN(CCC)CCc1ccc(OC2=CCN(C)CC2)cc1` the same measures were above 200 µM and 87.1 µM.
Regarding `CC(C)C(=O)/C=C/c1ccccc1`, the EC50 was above 200 µM and the IC50 was found to be 57.5 µM.
For `C=CCC(CCC(CC=C)C(=O)O)C(=O)O` (centres undefined), in that order: above 1100 µM and above 1100 µM.
On to `CC1CC(C)(C)N=C(C(C)CC(C)(C)C)O1` (centres undefined), for which the EC50 is above 200 µM and the IC50 turned out to be 60.3 µM.
For `CC(=O)N1CN=C2Sc3ccccc3N2C1` the same measures were above 200 µM and above 200 µM.
With `CCOC(=O)/C(C#N)=C1/C(O)=C(C(=O)OC)C(C(=O)OC)=C1C(=O)OC`, the result was inactive.
As to `COc1ccc(C2CC(=O)c3c(O)cc(OC4OC(CO)C(O)C(O)C4OC4OC(C)C(O)C(O)C4O)cc3O2)cc1O` (centres undefined), the EC50 is above 200 µM and the concentration for half-maximal inhibition (IC50) was above 200 µM.
Regarding `N#CCc1nc(-c2cc3ccccc3oc2=O)cs1`, the EC50 was above 200 µM and the IC50 turned out to be 38 µM.
For `CCC(C)C(N)C(=O)NC(CC(N)=O)C(=O)NC(CC(C)C)C(=O)NC(CCCCN)C(=O)NC(C)C(=O)NC(CC(C)C)C(=O)NC(C)C(=O)NC(C)C(=O)NC(CC(C)C)C(=O)NC(C)C(=O)NC(CCCCN)C(=O)NC(CCCCN)C(=O)NC(C(=O)NC(CC(C)C)C(N)=O)C(C)CC` (centres undefined) the same measures were 40.7 µM and 43.7 µM.
Regarding `COC1(OC)CC2C(=O)N(Cc3ccccc3)C1C(S(=O)(=O)c1ccccc1)C2C(C)S(=O)(=O)c1ccccc1` (centres undefined), the EC50 is above 23.4 µM and the IC50 was above 23.4 µM.
On to `O=S(=O)(c1ccc(Br)cc1)n1c2ccc(Br)cc2c2nc3ccccc3nc21`, for which the EC50 is above 100 µM and the IC50 is above 100 µM.
For the compound `COc1ccc2c(c1)C(=O)C1(C2)[C@H](c2ccccc2)C2C(=O)c3cc(OC)ccc3C2[C@H]1c1ccccc1` (some centres undefined), the EC50 is above 200 µM and the IC50 is 138 µM.
Take `O=C(Nc1cc2cc([N+](=O)[O-])ccc2oc1=O)c1cccs1`: the EC50 is above 61.7 µM and the IC50 is above 61.7 µM.
As to `COc1cc2[nH]c(=O)[nH]c2c2c(C)c[nH]c12`, the EC50 was above 200 µM and the half-maximal inhibitory concentration (IC50) was above 200 µM.
Consider `CNC(=O)CNC(=O)C(NC(=O)CNC(=O)C1CCCN1C(=O)C(C)NC(=O)C(NC(=O)OC(C)(C)C)C(C)C)C(C)C` (centres undefined) (Boc-VAPGVG-NHMe; configuration not given here), for which the EC50 was above 200 µM and the half-maximal inhibitory concentration (IC50) was above 200 µM.
On to `O=c1cc(CO)oc(C(O)c2ccccc2)c1O` (centres undefined), for which the EC50 is above 200 µM and the half-maximal inhibitory concentration (IC50) was above 200 µM.
With `C[C@]12Cc3cn[nH]c3C(=O)C1CC[C@@H]1C2CC[C@@]2(C)C1CC[C@@H]2O` (some centres undefined), the EC50 was 20 µM and the IC50 came out at 21.9 µM.
With `NCCN.O=C([O-])[O-].O=C([O-])[O-].[Co+3].[K+]`, the EC50 is above 646 µM; the IC50 is 295 µM and 339 µM.
Take `O=C(N=Nc1c(O)[nH]c2ccccc12)c1ccccc1O`: the EC50 is above 25.1 µM and the IC50 is 15.5 µM.
For `Cc1cc(=O)[nH]c(NNC(C#N)c2cccc(O)c2)n1` (centres undefined), in that order: above 347 µM and 123 µM.
As for `CC(=O)/C(=C/n1ccc(=O)[nH]c1=S)C(=O)Nc1ccc(Cl)cc1`, the EC50 is above 200 µM and the concentration for half-maximal inhibition (IC50) came out at 155 µM.
Consider `CC(=O)C(=O)N1Cc2cc3ccccc3nc2C1`, for which the EC50 was above 708 µM and the IC50 stood at 257 µM.
For `C=CC(C)(C)n1cc(C2=C(O)C(=O)C(c3cn(C(C)(C)C=C)c4ccccc34)=C(OC(C)=O)C2=O)c2ccccc21` the same measures were above 20 µM and 1.07 µM.
For `O=C1NC(=O)C(=Cc2cccc(F)c2)C(=O)N1`, in that order: above 112 µM and above 112 µM.
For `COc1cc(/C=C2\CCC/C(=C\c3cc(OC)c(O)c(OC)c3)C2=O)cc(OC)c1O` the same measures were above 200 µM and 0.933 µM.
Take `CCCN(CCC)C(=O)Cc1c2n(c3ccccc13)CCCc1ccccc1-2`: the EC50 was above 13.8 µM and the IC50 was above 13.8 µM.
As to `CC(C)C(=O)Nc1nc2nc[nH]c2c(=O)[nH]1`, the EC50 was above 85.1 µM and the IC50 was above 85.1 µM.
Consider `O=c1oc2ccccc2c(O)c1Cc1ccc(Cc2c(O)c3ccccc3oc2=O)cc1`, for which the EC50 is above 200 µM and the IC50 stood at 182 µM.
Turning to `C[C@@H](CO)C1=C(O)c2ccc3c(c2C(=O)C1=O)CCCC3(C)C`, the EC50 is above 200 µM and the 50% inhibitory concentration (IC50) was 15.1 µM.
For `CC(C)OP(=O)(OC(C)C)C(C)(C)O` the same measures were above 200 µM and above 200 µM.
As for `N/C(=N\C(=S)N1CCCCC1)N1CCCCC1`, the outcome was inactive.
Still for that read-out and setting: in the case of `CCCCCCCCC1=C(OC)C(=O)c2cccnc2C1=O` it was “inactive”; in that of `C[C@]12CCC(=O)C=C1CC[C@@H]1C2CC[C@]2(C)c3nn(-c4ccccc4)nc3CC12` (some centres undefined), “inactive”.
For `Cc1ccc([N+](=O)[O-])cc1NC(=O)/C(=N/NC(=S)NN)C1SC(=S)NC1=O` (centres undefined), the EC50 is above 302 µM and the IC50 was above 302 µM.
Consider `Cc1ccc2nc3cc(C)c(=O)cc-3sc2c1`, for which the EC50 is above 56.2 µM and the IC50 came out at 37.2 µM.
For `Cc1ccc2c(c1)C=CC1(O2)N(c2ccccc2)C(=S)OC1(C)C` (centres undefined) the same measures were above 200 µM and 22.4 µM.
Consider `O=C(Cn1c(=O)oc2ccc(C(=O)c3cccc(Cl)c3)cc21)c1ccccc1`, for which the EC50 was above 200 µM and the IC50 came out at 56.2 µM.
For `CC(=O)C(C(=O)C(C)(C)C)C(=O)C(C)(C)C`, in that order: above 200 µM and above 200 µM.
For `CCOC(=O)c1ccc(CS(=O)(=O)c2ccccc2C(=O)OCC)c([N+](=O)[O-])c1` the same measures were above 85.1 µM and above 85.1 µM.
For the compound `CN(C)C(=S)/N=c1\ssc(=S)n1C`, the result was inactive.
Regarding `COc1cc2c(cc1OC)C[N+]1(C)CCc3cc(OC)c(OC)cc3C1C2` (centres undefined), the EC50 was above 501 µM and the IC50 was above 501 µM.
As to `Nc1ncnc2c1ncn2[C@@H]1C[C@@H]1CO`, the EC50 was above 200 µM and the IC50 was above 200 µM.
Take `Nc1nc2cc[nH]c2c(=O)[nH]1`: the EC50 was above 661 µM and the IC50 was above 661 µM.
